How the values were obtained:
[1] = set-up: method as in Xu et al. (2016) and Jiang et al. (2008); conditions: 6G after oral administration in rats; ref Xu et al. (2016) and Jiang et al. (2008); cited from earlier work
[2] = Tissue distribution after single oral administration (30 mg/kg); assay type: in vivo; conditions: 1–2 h after oral 30 mg/kg
Description: Tissue distribution analysis was carried out after a 7-week washout period following the completion of the pharmacokinetic study. The animals received a single oral administration of either 6G, 6S, zingerone, or vehicle at a dosage of 30 mg/kg. Euthanasia was performed using an overdose of isoflurane (>10%) in an induction chamber, either one or 2 h after oral gavage (3 rats/timepoint), and death was confirmed by exsanguination. Subsequently, the stomach, small intestine, liver, large intestine, kidneys, heart, lung, hippocampus, cortex, spleen, ovaries, and spinal cord were collected. The dissected organs were thoroughly cleaned with a cold normal saline solution and the connective tissue was removed. The organs were then precisely weighed before being stored at −40 °C. All processes during tissue collection were performed on ice.
Urine samples were centrifuged, and 50 µL of urine was extracted with 200 µL of 100% methanol. The mixture was vortexed for 10 min and subsequently centrifuged at 14,000 × g at 4 °C for 10 min. Feces and organs were weighed and homogenized with methanol (50:50% w/v). The supernatants of the extracted urine, feces, and organs were also filtered through a […] PVDF membrane (Chrome Tech, MN, USA) before analysis.
Plasma concentration-time profiles were plotted using GraphPad Prism 9.3.0 (GraphPad Software, USA). The absolute oral bioavailability was calculated as follows: F = (AUC p.o./dose p.o.)/(AUC i.v./dose i.v.). The percentage recovery of each administered compound was calculated as the total amount of the drug found in urine or feces divided by the administered dose. The tissue-to-plasma concentration ratios (K p) were calculated by dividing the concentration in the tissue by the corresponding plasma concentration at the respective sampling time point.

[3] = Pharmacokinetics after single intravenous administration (3 mg/kg), plasma LC-MS/MS; assay type: in vivo, Female Sprague Dawley rats; conditions: female, Sprague-Dawley, rat, iv, plasma analyte after zingerone i.v. 3 mg/kg, mean ± SD n=6
Description: This study is composed of two sections; the first section involves an investigation of the interconversion pharmacokinetics of the pure compounds, and the second focuses on tissue distribution. All rats were transferred to metabolic cages and fasted overnight for at least 10 h. The animals were then randomly divided into four groups (6 rats/group) to receive a single intravenous (i.v.) administration of either 6G, 6S, zingerone, or vehicle via the lateral tail vein at a dosage of 3 mg/kg. After a 7-week washout period, the rats received 30 mg/kg of the same test compounds through a single oral (p.o.) administration. Following each administration, blood samples (300 µL) were collected in heparinized tubes from the lateral tail vein (while rats were under anesthesia with isoflurane) at specified time points: 0.083, 0.25, 0.5, 1, 1.5, 2, 3, 4, 6, 8, and 24 h after administration. An additional 1 mL of blood sample was collected from each rat at pre-dose (0 h) and post-dose (24 h) for clinical laboratory testing and safety evaluation. All heparinized blood samples were initially centrifuged at 5,000 × g, 4 °C, for 10 min. Subsequently, the plasma was carefully transferred to a cryotube as an aliquot sample and then stored at −40 °C until analysis. Urine and feces were collected during the intervals of 0–24 h and 24–48 h post-dosing, and their weights and volumes were documented. All collected urine and feces samples were stored at −40 °C until analysis. Plasma samples were processed through protein precipitation. In brief, 50 µL of plasma was mixed with 200 µL of methanol containing 50 ng/mL of IS (dihydrocapsaicin). The mixtures were vortexed and centrifuged at 14,000 × g at 4 °C for 10 min. The supernatant was filtered through a […] PVDF membrane (Chrome Tech, MN, USA) before analysis. Investigation of glucuronide conjugations followed a previously published method with some modification ([Wang et al., 2017]; [Songvut et al., 2023]). A 50 μL aliquot of plasma, urine, or feces sample was incubated at 37 °C for a minimum of 30 min with 50 μL of β-glucuronidase (3,000 U/mL) in a sodium phosphate buffer (pH 6.8). For sample extraction, 150 μL of methanol containing 50 μg/L of IS was pipetted into the pre-incubated samples. Subsequently, the mixtures were vortexed for 10 min and then centrifuged at 14,000 × g at 4 °C for 10 min. The supernatants were filtered through a […] PVDF membrane (Chrome Tech, MN, United States) and then analyzed using the validated LC-MS/MS method. Quantitative analysis was conducted using liquid chromatography-tandem mass spectrometry (LC-MS/MS) with a Nexera X2 LCMS-8060NX instrument (Shimadzu, Japan). The instrument included a CBM-40lite system controller, CTO-40C column oven, SIL-40C XR autosampler, LC-40D XR solvent pump unit, FCV-DGU-403 degasser, and 20AH2 switching valve. The LC-MS/MS system was operated with a binary pump and equipped with a triple quadrupole mass spectrometer. Pharmacokinetic parameters were assessed using PK Solutions software (version 2.0) with non-compartmental analysis. The AUC was calculated using the Linear-Log Trapezoidal Method. The maximum plasma concentration (Cmax) and time to reach maximum plasma concentration (Tmax) were taken directly from the graph.

Row | SMILES | Tmax [1] [min] | distribution to brain regions (hippocampus and cortex) [2] | tissue-to-plasma ratios (rank among compounds) [2] | AUC(0-inf) [3] [ng·h/mL] | C0 [3] [ng/mL] | AUC(0-t) ([3]; read-out: AUC(0-t)) [ng·h/mL]
1 | CCCCC[C@H](O)CC(=O)CCc1ccc(O)c(OC)c1 [[6]-gingerol] | 10 | – | – | – | – | –
2 | COc1cc(CCC(C)=O)ccc1O [zingerone, 4-(4-hydroxy-3-methoxyphenyl)-2-butanone] | – | higher concentrations | highest | 12600 | 35100 | 12600
3 | CCCCC/C=C/C(=O)CCc1ccc(O)c(OC)c1 [[6]-shogaol] | – | lacking presence in key brain regions | – | – | – | –

Reference: article PMC11187260, “Unraveling the interconversion pharmacokinetics and oral bioavailability of the major ginger constituents: [6]-gingerol, [6]-shogaol, and zingerone after single-dose administration in rats” (Frontiers in Pharmacology, 2024)
